For assay [1], the system named is vascular smooth muscle cells. Nature of the assay: Horizontal vascular smooth muscle thin film (hMTF) contractility assay. In kind it is cell-based. The protocol:
FIG. 12 contrasts the use of fluorescent microscopy and the use of brightfield stereo microscopy of vascular smooth muscle (VSM) horizontal MTFs during an assay of the invention as described in Example 5. The top row depicts fluorescent microscopy photographs of VSM horizontal MTFs comprising fluorescent beads embedded in the PDMS film. […] (A) Photographs taken 5 minutes after the start of the experiment, the films are slightly bent up from the glass due to the initial contraction of VSM. […] Polydimethylsiloxane (PDMS) thin film substrates were fabricated via a multi-step spin coating process. Poly(N-isopropylacrylamide) ([…]) (Polysciences, Inc.) was dissolved at 10 wt % in 99.4% 1-butanol (w/v) and was then deposited as a thin layer onto the open glass islands, then the top protective film layer was peeled off. Sylgard 184 (Dow Corning) polydimethylsiloxane (PDMS) elastomer was mixed at a 10:1 base to curing agent ratio doped with 0.1% by volume […] Fluorospheres (Invitrogen), and spun coated on top of the […] coated glass cover slip which was then cured. The next day, the bottom protective film was peeled off. A mask, printed on transparencies was used to cut the glass into desired shapes. MTFs were released from the cover slip once the cells have formed the appropriate 2D microstructure. The MTFs were either cut out by hand, cut out using a robotic system, pre-cut prior to cell incubation. In one specific example of, e.g., horizontal MTF production, the middle section was cut out, so that only six rectangles remained in the area that had […]). Once the Tyrode's solution cools below 35° C., the […] layer transitions from a hydrophobic state to a hydrophilic state and begins to dissolve. As the […] dissolved the middle section cutout was peeled off the substrate with a pair of tweezers. Once the […] dissolves completely, the contraction of the myocytes pulls the MTF (the remaining rectangles) free from the rigid substrate. In the case of the horizontal MTF, rectangles remain with one end partially fixed to the substrate. Actuation and observation of multiple MTFs was carried out in a physiologic solution (e.g., normal Tyrodes solution). The horizontal […]) fabricated with vascular smooth muscle cells in the presence of fluorescent beads were treated with the endothelium-produced vasoconstrictor endothelin-1 (ET-1) followed by the rho-kinase inhibitor HA-1077. […] Quantification and analysis of thin film motion was performed using ImageJ (NIH) and MATLAB software. From the thresholded fluorescent images the length of the projection of the film on the horizontal plane was tracked throughout the contraction and the radius of curvature calculated. Using elasticity theory, the contraction stress necessary to induce the measured changes in curvature were calculated.

Assay [2] relates to Human umbilical artery vascular smooth muscle. Nature of the assay: Vascular muscular thin film (vMTF) contractility assay, films on posts. In kind it is cell-based. The protocol: Human umbilical artery vascular smooth muscle was seeded on thin films at 300 cells/mm^2 in complete M199 medium (M199 supplemented with 10% fetal bovine serum (FBS), penicillin, streptomycin, L-glutamine, glucose and vitamin B12). The tissue was cultured in complete M199 for 48 hours, with a single media change at 24 hours. After 48 hours, the cells were serum starved for an additional 48 hours (M199 supplemented with penicillin, streptomycin, L-glutamine, glucose and vitamin B12, but no FBS).
Muscle thin films were transferred to fresh Tyrode's solution in the testing dish (FIG. 1), which is maintained at 37° C. by a peltier heating system. Films were adhered to Teflon coated posts (FIG. 3) by moving them into close contact using tweezers. The films were imaged using a stereomicroscope outfitted with fluorescent imaging capability. Both brightfield and fluorescent images were captured every thirty seconds. In the experiment shown in FIG. […]
Quantification and analysis of thin film motion was performed using ImageJ (NIH) and MATLAB software. Thresholded fluorescent images (FIG. 4B) were fit to circles whose radii of curvature could be measured (FIG. 4C). Using elasticity theory, the contraction stress necessary to induce the measured changes in curvature were calculated (FIG. 4D). […]

The text below walks through data of patent publication US9857356B2, “Muscle chips and methods of use thereof” (President and Fellows of Harvard College, priority 2011, dated 2018).

Bridges are numbered along the chain shown (N, C = ends). Where no end group is shown, it is not given here.

In the case of `O=S(=O)(c1cccc2cnccc12)N1CCCNCC1` [HA-1077, fasudil], the “effect on VSM horizontal MTFs (FIG. 12C)” value in assay [1] (30 minutes after addition of the rho-kinase inhibitor) is “causes the VSM to completely relax”. Also, in assay [1] (hMTFs, 100 mM HA-1077 following ET-1), the “change in radius of curvature” value was “rapid increase in radius of curvature”. Also, the “stress after treatment (residual stress)” value in assay [2] (vMTFs, 100 mM HA-1077 following ET-1) stood at 3.1±0.8 kPa.

In the case of “endothelin-1 (CSCSSLMDKECVYFCHLDIIW; disulfide 1-15, 3-11; ends not checked; UniProt P05305 53-73, looked up) [ET-1, endothelium-produced vasoconstrictor]”, the “effect on VSM horizontal MTFs (FIG. 12B)” value in assay [1] (20 minutes after addition of the vasoconstrictor) is “causes the VSM to contract”. The “change in radius of curvature” value in assay [1] (hMTFs stimulated with 50 nM ET-1 at time 0) is on record as “decrease in their radii of curvature”. For the same compound, in assay [2] (vMTFs stimulated with 50 nM ET-1 at time 0), the “increase in cell generated stress” value is 5.06±0.75 kPa.
